Assay results published in US20250353873A1, “COMPOUNDS AND METHODS FOR MODULATING APOE EXPRESSION” (Ionis Pharmaceuticals, Inc., priority 2024, published 2025).
pIC50: −log10 of the molar value. Read-outs that look alike come from different tables or passages of the source. Strand notation (5' to 3'): a small letter for the sugar, then the base; units joined by * are phosphorothioate-linked, units joined directly phosphodiester-linked; [ ] holds rarer units or linkages, { } end groups; capitals alone tell only the bases. [ms] = mesyl phosphoramidate linkage; e = 2'-O-(2-methoxyethyl) (MOE); k = constrained ethyl (cEt); [5mC] = 5-methylcytosine; d = 2'-deoxy (DNA)

Key:
human APOE RNA [1] = assay: Dose-dependent inhibition of human APOE RNA in HepG2 cells, electroporation, 24 hours (Example 6); format: cell-based
How it was run: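 HepG2 cells, 50,000 per well, electroporated with various oligonucleotide concentrations. APOE RNA measured with primer probe set RTS3073, normalized to GAPDH (RTS104), expressed as % of untreated control; IC50 then calculated.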

human APOE RNA [2] = assay: Activity in APOE 1549 knock-in mice, single ICV bolus, 2 weeks (Example 7); format: in vivo; conditions: single ICV bolus of 300 μg, two weeks post treatment, Table 17
How it was run: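 Human APOE knock-in mice (model 41549), 2 per group, given a single 300 µg ICV bolus of oligonucleotide, with PBS as control. After 2 weeks, APOE RNA in cortex and spinal cord measured by RT-qPCR, normalized to mouse Ppia, and expressed as % of PBS control.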

human APOE RNA [3] = assay: Potency (dose response, ED50) in APOE C57BL/6NTac-Apoeem7250 knock-in mice, 8 weeks (Example 15); format: in vivo; conditions: for ED 50 (μg) Cortex / ED 50 (μg) Spinal Cord: single ICV bolus, GraphPad Prism 10
Protocol: Modified oligonucleotides described above were tested in the APOE C57BL/6NTac-Apoeem7250 knock-in mouse model described above.
APOE C57BL/6NTac-Apoeem7250 knock-in mice were divided into groups of 3-4 mice each. A group of 4 mice received a single ICV bolus with PBS as a negative control.
Eight weeks post treatment, mice were sacrificed, and RNA was extracted from cortical brain tissue and spinal cord for quantitative real-time RT-PCR analysis of RNA expression of […] using human primer probe set RTS3073 (described herein above). APOE RNA levels were normalized to mouse Ppia. Mouse Ppia was amplified using primer probe set m_cyclo24 (described herein above). Results are presented as percent human APOE RNA relative to the amount of APOE RNA in PBS treated animals, (% control). N.C. indicates values that were not calculated.
The half maximal effective dose (ED50) of each modified oligonucleotide was calculated using GraphPad Prism 10 software (GraphPad Software, San Diego, CA).

human APOE RNA [4] = assay: Activity in APOE 1549 knock-in mice, single ICV bolus, 4 weeks (Example 8); format: in vivo; conditions: n = 6, single ICV bolus 300 μg, 4 weeks
Protocol: Modified oligonucleotides described above were tested in the 1549 APOE knock-in mouse model described above.
APOE knock-in mice were divided into groups of either 2 or 6 mice each as described in the tables below. Each mouse received a single intracerebroventricular (ICV) bolus of 300 μg of modified oligonucleotide. A group of either 3 or 6 mice received a single ICV bolus with PBS as a negative control.
Four weeks post treatment, mice were sacrificed and RNA was extracted from cortical brain tissue and spinal cord for quantitative real-time RT-PCR analysis of RNA expression of APOE using primer probe set RTS3073 (described herein above). APOE RNA levels were normalized to mouse Ppia. Mouse Ppia was amplified using primer probe set m_cyclo24 (described herein above). Results are presented as percent human APOE RNA relative to the amount of human APOE RNA in PBS treated animals, (% control). Each experiment is identified in separate tables below.

BJAB cells [5] = tested on: BJAB cells
Protocol: (§1) Human APOE modified oligonucleotides were tested for potential immunostimulatory properties in an in vitro human BJAB activation assay.
(§2) Human Burkitt lymphoma B cells, BJAB cells (DSMZ, Cat #ACC 757) were cultured in RPMI1640 medium containing 20% fetal bovine serum at 37° C. and 5% CO2. Cells were maintained at a density of 0.5-0.7×10^6 cells per milliliter. Cells were transferred to 50 mL conical Falcon tubes and centrifuged at 330 RCF for 5 minutes before being resuspended at a concentration of 7.5×10^4 cells per milliliter in RPMI culture medium containing penicillin and streptomycin. 50 μL of the cell suspension was added to a v-bottom tissue culture treated 96-well microplate. 11 μl of 10× concentrated modified oligonucleotides was then added to the plate for a final concentration of 1.6 μM and incubated for 24 hours at 37° C. and 5% CO2.
(§3) After a treatment period of 24 hours, total RNA was isolated from the cells and CCL22 RNA levels were measured by quantitative real-time RT-PCR. CCL22 RNA levels were measured by human primer-probe set RTS49260 (forward sequence [sequence], designated herein as SEQ ID NO: 19; reverse sequence [sequence], designated herein as SEQ ID NO: 20; probe sequence [sequence], designated herein as SEQ ID NO: 21). CCL22 RNA levels were normalized to total RNA content, as measured by GAPDH. Human GAPDH was measured using the human primer-probe set RTS104 (forward sequence [sequence], designated herein as SEQ ID NO: 10; reverse sequence [sequence], designated herein as SEQ ID NO: 11; probe sequence [sequence], designated herein as SEQ ID NO: 12). Levels of CCL22 RNA is presented log fold increase of CCL22, relative to untreated control cells (UTC). The assignment of the immunostimulatory properties of the test compounds is based on the immunostimulatory properties of the internal control compounds in each assay.

BJAB cells [6] = assay: Evaluation of proinflammatory effects in BJAB assay, CCL22 RNA (Example 17); conditions: for inflammatory response in human BJAB cells: 24-hour culturing period, assay of Example 17; for LOG10 CCL22 relative to UTC / Immunostimulatory Properties: BJAB cells, 1.6 μM, 24 hours; for LOG10 CCL22 relative to UTC: CCL22 RNA normalized to GAPDH; for Immunostimulatory Properties: assigned relative to internal control compounds of each assay
Protocol: as §1, §2, §3

| Substance | APOE RNA (% control) Cortex (human APOE RNA [3]; ICV dose 10 μg) [% control] | APOE RNA (% control) Cortex (human APOE RNA [3]; ICV dose 30 μg) [% control] | APOE RNA (% control) Cortex (human APOE RNA [3]; ICV dose 100 μg) [% control] | APOE RNA (% control) Cortex (human APOE RNA [3]; ICV dose 300 μg) [% control] | APOE RNA (% control) Cortex (human APOE RNA [3]; ICV dose 700 μg) [% control] | ED 50 (μg) Cortex (human APOE RNA [3]) [µg] | APOE RNA (% control) Spinal Cord (human APOE RNA [3]; ICV dose 10 μg) [% control] | APOE RNA (% control) Spinal Cord (human APOE RNA [3]; ICV dose 30 μg) [% control] | APOE RNA (% control) Spinal Cord (human APOE RNA [3]; ICV dose 100 μg) [% control] | APOE RNA (% control) Spinal Cord (human APOE RNA [3]; ICV dose 300 μg) [% control] | APOE RNA (% control) Spinal Cord (human APOE RNA [3]; ICV dose 700 μg) [% control] | ED 50 (μg) Spinal Cord (human APOE RNA [3]) [µg] | inflammatory response in human BJAB cells (BJAB cells [5]) | inflammatory response in human BJAB cells (BJAB cells [6]) | LOG10 CCL22 relative to UTC (BJAB cells [6]) | Immunostimulatory Properties (BJAB cells [6]) | other results |
| --- | --- | --- | --- | --- | --- | --- | --- | --- | --- | --- | --- | --- | --- | --- | --- | --- | --- |
| 1693105: 6-10-4 MOE gapmer CTTGGTGAATCTTTATTAAA, linkages sosssszzzssssszssss (e[5mC]*eTeT*eG*eG*eT*dG[ms]dA[ms]dA[ms]dT*d[5mC]*dT*dT*dT*dA[ms]dT*eT*eA*eA*eA) [compound 1693105] | – | – | – | – | – | – | – | – | – | – | – | – | – | – | – | – | pIC50 (human APOE RNA [1]): 5.96; APOE RNA (% UTC) (human APOE RNA [1]; 5 nM): 117 % UTC; APOE RNA (% UTC) (human APOE RNA [1]; 13 nM): 104 % UTC; APOE RNA (% UTC) (human APOE RNA [1]; 33 nM): 118 % UTC; APOE RNA (% UTC) (human APOE RNA [1]; 82 nM): 91 % UTC; APOE RNA (% UTC) (human APOE RNA [1]; 205 nM): 101 % UTC; APOE RNA (% UTC) (human APOE RNA [1]; 512 nM): 59 % UTC; APOE RNA (% UTC) (human APOE RNA [1]; 1,280 nM): 43 % UTC; APOE RNA (% UTC) (human APOE RNA [1]; 3,200 nM): 23 % UTC; APOE RNA (% UTC) (human APOE RNA [1]; 8,000 nM): 21 % UTC; APOE RNA (% UTC) (human APOE RNA [1]; 20,000 nM): 6 % UTC; APOE RNA (% control) Cortex (human APOE RNA [2]; cortex): 51 % control; APOE RNA (% control) Spinal Cord (human APOE RNA [2]; spinal cord): 38 % control |
| 1785599: modified oligonucleotide complementary to human APOE RNA (k[5mC]*kT*kT*dG[ms]dG[ms]dT[ms]dG[ms]dA[ms]dA[ms]dT[ms]d[5mC]*dT*dT*dT*dA*dT*kT*kA*dA[ms]kA; antisense) [compound 1785599] | 94 | 72 | 56 | 37 | 25 | 143.3 | 54 | 38 | 16 | 13 | 12 | 12.18 | – | – | – | – | – |
| Aes^mCeoTeoTesGesGksTdsGdzAdzAdzTds^mCdsTdsTdsTdsAdzTksTksAesAe (eA*e[5mC]eTeT*eG*kG*dT*dG[ms]dA[ms]dA[ms]dT*d[5mC]*dT*dT*dT*dA[ms]kT*kT*eA*eA) [Compound No. 1757576] | 93 | 92 | 52 | 30 | 18 | 135.7 | 33 | 15 | 13 | 9 | 9 | – | did not induce any inflammatory response | – | – | – | APOE RNA (% control) Cortex (human APOE RNA [4]; Cortex): 26 % control; APOE RNA (% control) Spinal Cord (human APOE RNA [4]; Spinal Cord): 17 % control |
| Aks^mCeoTeoTesGesGksTdsGdzAdzAdzTds^mCdsTdsTdsTdsAdzTksTksAesAe (kA*e[5mC]eTeT*eG*kG*dT*dG[ms]dA[ms]dA[ms]dT*d[5mC]*dT*dT*dT*dA[ms]kT*kT*eA*eA) [Compound No. 1809635] | 95 | 84 | 62 | 30 | 16 | 146.7 | 51 | 27 | 13 | 13 | 18 | – | did not induce any inflammatory response | – | – | – | – |
| TezTeoGeoGksTdsGdzAdzAdzTds^mCdsTdsTdsTdsAdzTksTksAesAesAes^mCe (antisense eT[ms]eTeGkG*dT*dG[ms]dA[ms]dA[ms]dT*d[5mC]*dT*dT*dT*dA[ms]kT*kT*eA*eA*eA*e[5mC]) [Compound No. 1809814] | 97 | 85 | 72 | 47 | 37 | 309.5 | 81 | 60 | 45 | 29 | 28 | 78.7 | – | did not induce any inflammatory response | 0.07 | Non-Inflammatory | – |
| ^mCksTksTksGdzGdzTdzGdzAdzAdzTds^mCdsTdsTdsTdsAdsTdsTksAksAdzAk (antisense k[5mC]*kT*kT*dG[ms]dG[ms]dT[ms]dG[ms]dA[ms]dA[ms]dT*d[5mC]*dT*dT*dT*dA*dT*kT*kA*dA[ms]kA) [Compound No. 1785602] | 95 | 90 | 57 | 31 | 21 | 153.2 | 73 | 40 | 26 | 20 | 22 | 26.9 | – | did not induce any inflammatory response | 0.34 | Non-Inflammatory | – |
